The source of these data is ChEMBL document CHEMBL6153097, “Design, synthesis, and biological evaluation of Flavokavain B derivatives as potent TRF2 inhibitors for the treatment of Osteosarcoma” (Eur J Med Chem, 2025).

Molecules are shown by their SMILES. Calls of active or inactive are those of the source. No cut-off for these calls is given here.

By inhibition is commonly meant how much of the control response was suppressed. What is called IC50 is the concentration needed to halve the response being measured.

A short description of series [1]: (§1) Inhibition of TRF2 expression in human U2OS cells at 2 uM measured after 48 hrs by Western blot analysis relative to control. The class given is functional. (Immunoblotting shows a protein as a band on a membrane.)
The nature of series [2]: (§2) Inhibition of TRF2 expression in human MG-63 cells at 2 uM measured after 48 hrs by Western blot analysis relative to control. The class given is functional.
In series [3] the test system is MG-63. The series is described as §2. It is filed as functional.
Series [4] has as its system U2OS. Briefly: Antiproliferative activity against human U2OS cells assessed as reduction in cell viability incubated for 48 hrs by MTT assay. The class given is functional, cell-based. In general terms: Tetrazolium dyes change colour on reduction, which living cells bring about.
The test system of series [5] is MG-63. As to the kind of experiment: Antiproliferative activity against human MG-63 cells assessed as reduction in cell viability incubated for 48 hrs by MTT assay. The following applies: MG-63, 48 h. The class given is functional, cell-based.
Series [6] can be described thus: Cytotoxicity against […] MLO-Y4 cells assessed as cell viability incubated for 48 hrs by MTT assay. The class given is toxicity, cell-based. The settings on record: mouse.
Series [7] deals with U2OS. The series is described as §1. The class given is functional.

Regarding `COc1cc(O)ccc1C(=O)/C=C/c1cc(Br)cc(Br)c1`, the figures for the inhibition at 2 µM in series [1] and in series [2] were 42.1% and 22.2%, respectively.

With `O=C(/C=C/c1cc(Br)cc(Br)c1)c1ccc2c(c1)OCCO2`, the figures for the inhibition at 2 µM in series [1] and in series [2] were 36.7% and 37.6%, respectively.

For `COc1cc(N2CCOCC2)ccc1C(=O)/C=C/c1cccc(Br)c1`, the inhibition at 2 µM in series [1] turned out to be 25.1%; in series [2], 22.7%.

In series [1], `CCOC(=O)COc1ccc(C(=O)/C=C/c2cc(Br)cc(Br)c2)c(OC)c1` yielded an inhibition at 2 µM of 39.2%. Further, the inhibition result with MG-63 [3] was “inactive”.

Regarding `COc1cccc(O)c1C(=O)/C=C/c1cccc(Br)c1`, the figures for the inhibition at 2 µM in series [1] and in series [2] were 35% and 40.6%, respectively.

In the case of `COc1cc(O)c(C(=O)/C=C/c2cccc(Br)c2)c(OC)c1`, the inhibition at 2 µM in series [1] stood at 18.3%; in series [2], 37.8%. For the same compound, the IC50 in the series with U2OS [4] amounted to 8.75 µM; with MG-63 [5] it was 4.34 µM. Moreover, the concentration for half-maximal inhibition (IC50) at 48 h in series [6] came to 19.6 µM.

For `COc1cc(O)c(C(=O)/C=C/c2cc(Cl)ccn2)c(OC)c1`, the inhibition at 2 µM came out at 32.9% in series [1] and 41.3% in series [2].

Regarding `COc1cc(O)c(C(=O)/C=C/c2cc(Br)cc(Br)c2)c(OC)c1`, the values for the inhibition at 2 µM in series [1] and in series [2] were 13.8% and 22.1%, respectively.

With `COc1cc(O)c(C(=O)CCc2cccc(Br)c2)c(OC)c1`, the inhibition at 2 µM in series [1] was 34.5%; in series [2], 32.8%.

As to `COc1cc(OCC(=O)O)ccc1C(=O)/C=C/c1cccc(Br)c1`, in series [1], testing at 2 µM gave an inhibition of 52.5%. In the series with MG-63 [3], the inhibition entry is “inactive”.

On to `COc1ccc(C(=O)/C=C/c2cccc(Br)c2)c(O)c1`, for which the inhibition at 2 µM was 51.7% in series [1] and 44.8% in series [2]. The IC50 in the series with U2OS [4] is 7.87 µM; with MG-63 [5], 7.11 µM. The IC50 at 48 h in series [6] is 7.93 µM.

With `COc1cc(OCC(=O)O)ccc1C(=O)/C=C/c1cc(Br)cc(Br)c1`, the figures for the inhibition at 2 µM in series [1] and in series [2] were 52% and 34.8%, respectively. The 50% inhibitory concentration (IC50) in the series with U2OS [4] was 32.9 µM; with MG-63 [5], 22.8 µM. The half-maximal inhibitory concentration (IC50) at 48 h in series [6] was above 100 µM.

As for `CCOc1ccc(C(=O)/C=C/c2cccc(Br)c2)c(OCC)c1`, the inhibition result in the series with U2OS [7] is “inactive”. In series [2], at 2 µM the inhibition was 36.1%.

Consider `COc1cc(N2CCOCC2)ccc1C(=O)/C=C/c1cc(Br)cc(Br)c1`, for which the inhibition at 2 µM in series [1] came to 33.2%; in series [2] it was 40.2%.

In the case of `COc1cc(OC)c(C(=O)/C=C/c2cc(Br)cc(Br)c2)c(OC)c1`, the inhibition at 2 µM is 31.1% in series [1] and 31.4% in series [2].

As for `COc1cc(OC2CCCOC2)ccc1C(=O)/C=C/c1cccc(Br)c1` (stereo not given), the inhibition at 2 µM in series [1] amounted to 31.8%; in series [2], 23.7%.

With `O=C(/C=C/c1cccc(Br)c1)c1ccc2c(c1)OCCO2`, the inhibition at 2 µM stood at 39.5% in series [1] and 48.5% in series [2]. For the same compound, the IC50 is 13.2 µM with U2OS [4] and 6.81 µM in the series with MG-63 [5]. In addition, the half-maximal inhibitory concentration (IC50) at 48 h in series [6] was 76.5 µM.

In the case of `COc1cc(OC)c2c(=O)cc(-c3cccc(Br)c3)oc2c1`, the values for the inhibition at 2 µM in series [1] and in series [2] were 33.7% and 23.8%, respectively.

`CCOC(=O)COc1ccc(C(=O)/C=C/c2cccc(Br)c2)c(OC)c1` showed an inhibition at 2 µM in series [1] of 37.3%. Besides, the inhibition result in the series on MG-63 [3] is “inactive”.

Take `COc1cc(O)ccc1C(=O)/C=C/c1cccc(Br)c1`: in series [1], 2 µM produced 9.3% inhibition. Besides, in the series with MG-63 [3], the inhibition entry is “inactive”.

Turning to `COc1cc(OC2CCCOC2)ccc1C(=O)/C=C/c1cc(Br)cc(Br)c1` (stereo not given), the inhibition result with U2OS [7] is “inactive”. Moreover, in series [2], testing at 2 µM gave an inhibition of 32.2%.

As for `CCOc1ccc(C(=O)/C=C/c2cc(Br)cc(Br)c2)c(OCC)c1`, in the series on U2OS [7], the inhibition entry was “inactive”. For the same compound, 2 µM produced 17.1% inhibition in series [2].

For `COc1ccc(C(=O)/C=C/c2cc(Br)cc(Br)c2)c(OC)c1`, the figures for the inhibition at 2 µM in series [1] and in series [2] were 22.5% and 52.5%, respectively.

With `COc1ccc(C(=O)/C=C/c2cccc(Br)c2)c(OC)c1`, the inhibition at 2 µM in series [1] was 45.4%; in series [2] it was 29.6%.

For `COc1ccc(CNC(=O)Nc2ncc([N+](=O)[O-])s2)cc1`, the inhibition at 2 µM amounted to 9.2% in series [1] and 14.6% in series [2]. Moreover, the concentration for half-maximal inhibition (IC50) came out at 32.8 µM in the series on U2OS [4] and 37.8 µM with MG-63 [5]. The half-inhibitory concentration (IC50) at 48 h in series [6] was above 100 µM.
